{"source": "ChEMBL document CHEMBL4420069", "about": "“Targeting capn9/capns2 activity as a therapeutic strategy for the treatment of myofibroblast differentiation and associated pathologies” (2018)", "key": {"Calpain-9": {"molecular_target": "T1, Calpain-9 (Homo sapiens, UniProt O14815)", "T1 sequence (O14815 whole entry)": "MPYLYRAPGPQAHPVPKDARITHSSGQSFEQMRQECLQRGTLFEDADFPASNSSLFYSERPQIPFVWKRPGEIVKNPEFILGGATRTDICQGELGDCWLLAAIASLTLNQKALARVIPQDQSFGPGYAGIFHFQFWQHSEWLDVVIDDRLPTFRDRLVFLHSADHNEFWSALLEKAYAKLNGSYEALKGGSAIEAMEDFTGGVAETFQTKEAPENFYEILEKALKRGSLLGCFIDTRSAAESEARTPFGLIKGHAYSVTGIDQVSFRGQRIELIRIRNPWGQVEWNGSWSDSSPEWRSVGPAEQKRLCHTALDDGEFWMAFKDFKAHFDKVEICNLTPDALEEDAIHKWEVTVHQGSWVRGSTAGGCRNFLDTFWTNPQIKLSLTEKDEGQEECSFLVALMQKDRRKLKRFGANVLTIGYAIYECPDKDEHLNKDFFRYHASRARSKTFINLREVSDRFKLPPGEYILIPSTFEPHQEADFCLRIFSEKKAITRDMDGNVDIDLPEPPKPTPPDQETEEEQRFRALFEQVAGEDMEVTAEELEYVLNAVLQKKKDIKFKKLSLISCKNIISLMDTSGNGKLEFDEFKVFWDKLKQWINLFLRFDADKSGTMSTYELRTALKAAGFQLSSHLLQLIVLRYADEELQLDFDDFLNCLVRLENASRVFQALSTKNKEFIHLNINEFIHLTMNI", "experiment": "Inhibition of human recombinant mini-CAPN9 pre-incubated for 10 mins before calpain FRET peptide 5-FAM /QXL520 substrate addition by FLIPR assay"}, "Mus musculus [1]": {"organism": "Mus musculus", "experiment": "Inhibition of calcineurin in mouse NMuMG cells assessed as suppression of TGFbeta1-induced EMT by measuring alpha-SMA expression at 0.25 to 0.75 uM incubated for 72 hrs by Western blot analysis", "assay_type": "cell-based"}, "Mus musculus [2]": {"organism": "Mus musculus", "experiment": "Inhibition of calpain in mouse NMuMG cells assessed as suppression of TGFbeta1-induced EMT by measuring alpha-SMA expression at 25 to 50 uM incubated for 24 to 72 hrs by Western blot analysis", "assay_type": "cell-based"}, "Mus musculus [3]": {"organism": "Mus musculus", "experiment": "Inhibition of calpain in mouse NMuMG cells assessed as suppression of TGFbeta1-induced calpain activity by measuring Filamin-A levels at 25 to 50 uM incubated for 24 to 72 hrs by Western blot analysis", "assay_type": "cell-based"}, "[4]": {"molecular_target": "Mothers against decapentaplegic homolog 2 (Mus musculus) (UniProt Q62432)", "sequence (Q62432 whole entry)": "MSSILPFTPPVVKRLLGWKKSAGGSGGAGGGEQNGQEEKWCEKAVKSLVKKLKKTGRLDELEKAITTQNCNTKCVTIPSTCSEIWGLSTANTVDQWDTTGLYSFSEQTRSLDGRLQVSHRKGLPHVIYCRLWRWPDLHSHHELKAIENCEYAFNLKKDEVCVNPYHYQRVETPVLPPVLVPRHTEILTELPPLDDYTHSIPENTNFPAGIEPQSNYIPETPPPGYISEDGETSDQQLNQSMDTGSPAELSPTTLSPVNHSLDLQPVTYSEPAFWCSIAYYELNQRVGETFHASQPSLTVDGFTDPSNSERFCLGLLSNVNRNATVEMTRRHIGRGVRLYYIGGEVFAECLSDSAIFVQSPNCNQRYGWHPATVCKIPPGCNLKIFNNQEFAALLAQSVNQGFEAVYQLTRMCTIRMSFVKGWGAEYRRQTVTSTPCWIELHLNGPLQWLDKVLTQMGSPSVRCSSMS", "settings": "at 25 to 50 µM", "description": "Inhibition of TGFbeta1-induced SMAD2 phosphorylation in mouse NMuMG cells at 25 to 50 uM incubated for 24 to 72 hrs"}, "Mus musculus [5]": {"organism": "Mus musculus", "experiment": "Inhibition of TGFbeta receptor in mouse NMuMG cells assessed as suppression of TGFbeta1-induced EMT by measuring alpha-SMA expression at 1 to 10 uM incubated for 24 to 72 hrs by Western blot analysis", "assay_type": "cell-based"}, "Mus musculus [6]": {"organism": "Mus musculus", "experiment": "Inhibition of TGFbeta receptor in mouse NMuMG cells assessed as suppression of TGFbeta1-induced SMAD2 phosphorylation at 1 to 10 uM incubated for 24 to 72 hrs by Western blot analysis", "assay_type": "cell-based"}, "Mus musculus [7]": {"organism": "Mus musculus", "experiment": "Inhibition of TGFbeta receptor in mouse NMuMG cells assessed as suppression of TGFbeta1-induced calpain activity by measuring Filamin-A levels at 1 to 10 uM incubated for 24 to 72 hrs by Western blot analysis", "assay_type": "cell-based"}, "[8]": {"molecular_target": "Mothers against decapentaplegic homolog 2 (Mus musculus) (UniProt Q62432)", "experiment": "Inhibition of TGFbeta1-induced SMAD2 phosphorylation in mouse NMuMG cells at 25 to 50 uM incubated for 72 hrs", "assay_type": "cell-based"}, "[9]": {"molecular_target": "Transient receptor potential cation channel subfamily M member 7 (Homo sapiens) (UniProt Q96QT4)", "experiment": "Inhibition of TRPM7 in NHLF assessed as inhibition of TGFB1-induced FMT by measuring alpha-SMA expression at 25 to 50 uM incubated for 24 hrs by Western blot analysis"}, "[10]": {"molecular_target": "Transient receptor potential cation channel subfamily M member 7 (Mus musculus) (UniProt Q923J1)", "sequence (Q923J1 whole entry)": "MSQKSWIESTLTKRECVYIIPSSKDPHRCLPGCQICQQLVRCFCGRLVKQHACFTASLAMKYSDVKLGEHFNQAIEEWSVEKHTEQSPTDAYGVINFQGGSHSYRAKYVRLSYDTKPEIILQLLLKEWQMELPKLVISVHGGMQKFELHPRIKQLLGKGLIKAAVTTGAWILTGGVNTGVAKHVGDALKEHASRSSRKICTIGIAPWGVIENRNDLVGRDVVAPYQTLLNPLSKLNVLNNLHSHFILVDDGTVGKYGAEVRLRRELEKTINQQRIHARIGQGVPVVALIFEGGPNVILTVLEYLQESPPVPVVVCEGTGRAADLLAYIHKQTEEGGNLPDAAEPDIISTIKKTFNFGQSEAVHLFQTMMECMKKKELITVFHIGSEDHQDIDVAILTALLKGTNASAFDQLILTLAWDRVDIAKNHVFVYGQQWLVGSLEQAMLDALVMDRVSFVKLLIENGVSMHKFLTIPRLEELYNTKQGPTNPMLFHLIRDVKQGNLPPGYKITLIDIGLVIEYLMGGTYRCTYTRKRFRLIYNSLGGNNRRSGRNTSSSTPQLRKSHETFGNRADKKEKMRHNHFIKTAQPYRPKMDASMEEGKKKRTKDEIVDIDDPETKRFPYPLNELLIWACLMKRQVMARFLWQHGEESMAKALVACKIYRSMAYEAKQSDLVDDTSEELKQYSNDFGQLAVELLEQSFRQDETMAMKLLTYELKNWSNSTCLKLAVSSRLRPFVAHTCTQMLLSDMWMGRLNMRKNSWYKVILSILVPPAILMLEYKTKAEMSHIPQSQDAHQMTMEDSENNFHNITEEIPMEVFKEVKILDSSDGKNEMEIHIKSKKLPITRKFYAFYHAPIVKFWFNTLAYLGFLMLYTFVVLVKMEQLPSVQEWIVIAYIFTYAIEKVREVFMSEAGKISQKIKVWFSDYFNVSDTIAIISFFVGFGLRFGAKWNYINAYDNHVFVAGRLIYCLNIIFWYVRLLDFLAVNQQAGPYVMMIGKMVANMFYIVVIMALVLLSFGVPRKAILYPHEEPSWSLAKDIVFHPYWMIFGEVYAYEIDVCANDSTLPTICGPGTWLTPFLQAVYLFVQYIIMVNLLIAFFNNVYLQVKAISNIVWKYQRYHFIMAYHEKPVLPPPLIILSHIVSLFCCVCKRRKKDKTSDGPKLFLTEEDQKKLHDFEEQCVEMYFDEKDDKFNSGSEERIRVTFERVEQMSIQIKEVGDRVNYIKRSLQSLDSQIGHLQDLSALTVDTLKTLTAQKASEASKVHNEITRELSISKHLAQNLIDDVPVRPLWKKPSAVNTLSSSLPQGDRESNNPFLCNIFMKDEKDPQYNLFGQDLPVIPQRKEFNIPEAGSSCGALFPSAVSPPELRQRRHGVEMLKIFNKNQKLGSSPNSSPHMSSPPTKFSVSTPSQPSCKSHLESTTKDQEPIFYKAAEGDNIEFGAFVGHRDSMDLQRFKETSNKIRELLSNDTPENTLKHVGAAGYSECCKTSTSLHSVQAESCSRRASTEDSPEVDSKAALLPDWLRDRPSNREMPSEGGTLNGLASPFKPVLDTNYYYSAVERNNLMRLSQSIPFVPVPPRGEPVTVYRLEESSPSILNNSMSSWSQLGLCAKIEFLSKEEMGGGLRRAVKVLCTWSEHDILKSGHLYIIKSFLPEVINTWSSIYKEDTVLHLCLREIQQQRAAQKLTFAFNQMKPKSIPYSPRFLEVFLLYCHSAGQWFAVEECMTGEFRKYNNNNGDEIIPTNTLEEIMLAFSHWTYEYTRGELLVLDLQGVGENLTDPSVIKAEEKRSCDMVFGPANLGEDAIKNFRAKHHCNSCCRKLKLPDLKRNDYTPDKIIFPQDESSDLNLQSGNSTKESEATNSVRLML", "settings": "at 25 to 50 µM", "description": "Inhibition of TRPM7 in mouse NMuMG cells assessed as suppression of TGFbeta1-induced EMT by measuring alpha-SMA expression at 25 to 50 uM incubated for 24 to 72 hrs by Western blot analysis"}, "[11]": {"molecular_target": "Transient receptor potential cation channel subfamily M member 7 (Mus musculus) (UniProt Q923J1)", "settings": "at 25 to 50 µM", "remark": "listed apart in the source", "description": "Inhibition of TRPM7 in mouse NMuMG cells assessed as suppression of TGFbeta1-induced calpain activity by measuring Filamin-A levels at 25 to 50 uM incubated for 24 to 72 hrs by Western blot analysis"}, "Mus musculus [12]": {"organism": "Mus musculus", "experiment": "Inhibition of calpain in mouse NMuMG cells assessed as suppression of TGFbeta1-induced EMT by measuring alpha-SMA expression at 10 to 20 uM incubated for 24 to 72 hrs by Western blot analysis", "assay_type": "cell-based"}, "[13]": {"molecular_target": "Mothers against decapentaplegic homolog 2 (Mus musculus) (UniProt Q62432)", "experiment": "Inhibition of TGFbeta1-induced SMAD2 phosphorylation in mouse NMuMG cells at 10 to 20 uM incubated for 24 to 72 hrs", "assay_type": "cell-based"}, "Mus musculus [14]": {"organism": "Mus musculus", "experiment": "Inhibition of calpain in mouse NMuMG cells assessed as suppression of TGFbeta1-induced EMT by measuring collagen 1A1 expression at 10 to 20 uM incubated for 48 hrs", "assay_type": "cell-based"}, "Mus musculus [15]": {"organism": "Mus musculus", "experiment": "Inhibition of calpain in mouse NMuMG cells assessed as suppression of TGFbeta1-induced EMT by measuring vimentin expression at 10 to 20 uM incubated for 48 hrs", "assay_type": "cell-based"}, "Mus musculus [16]": {"organism": "Mus musculus", "experiment": "Inhibition of calpain in mouse NMuMG cells assessed as suppression of TGFbeta1-induced EMT by measuring MMP2 expression at 10 to 20 uM incubated for 48 hrs", "assay_type": "cell-based"}, "Mus musculus [17]": {"organism": "Mus musculus", "experiment": "Inhibition of calpain in mouse NMuMG cells assessed as suppression of TGFbeta1-induced EMT by measuring MMP9 expression at 10 to 20 uM incubated for 48 hrs", "assay_type": "cell-based"}, "Mus musculus [18]": {"organism": "Mus musculus", "experiment": "Inhibition of calpain in mouse NMuMG cells assessed as suppression of TGFbeta1-induced E-cadherin expression at 10 to 20 uM by immunofluorescence microscopy", "assay_type": "cell-based"}, "Mus musculus [19]": {"organism": "Mus musculus", "experiment": "Inhibition of calpain in mouse NMuMG cells assessed as suppression of TGFbeta1-induced actin cytoskeleton reorganization at 10 to 20 uM", "assay_type": "cell-based"}, "MDCK": {"tested_on": "MDCK", "experiment": "Inhibition of calpain in MDCK cells assessed as suppression of TGFbeta1-induced EMT by measuring alpha-SMA expression at 10 to 20 uM incubated for 24 to 72 hrs by Western blot analysis", "assay_type": "cell-based", "settings": "Canis lupus familiaris"}, "Mus musculus [20]": {"organism": "Mus musculus", "experiment": "Inhibition of calpain in mouse NMuMG cells assessed as suppression of TGFbeta1-induced EMT by measuring alpha-SMA expression at 10 to 20 uM incubated for 48 to 72 hrs after 72 hrs pre-incubation with TGFbeta with continued presence of TGFbeta by Western blot analysis", "assay_type": "cell-based"}, "Mus musculus [21]": {"organism": "Mus musculus", "experiment": "Inhibition of calpain in mouse NMuMG cells assessed as suppression of TGFbeta1-induced E-cadherin expression at 10 to 20 uM incubated for 48 to 72 hrs after 72 hrs pre-incubation with TGFbeta with continued presence of TGFbeta by immunofluorescence microscopy", "assay_type": "cell-based"}, "Mus musculus [22]": {"organism": "Mus musculus", "experiment": "Inhibition of calpain in mouse NMuMG cells assessed as suppression of TGFbeta1-induced actin cytoskeleton reorganization at 10 to 20 uM incubated for 48 to 72 hrs after 72 hrs pre-incubation with TGFbeta with continued presence of TGFbeta", "assay_type": "cell-based"}, "[23]": {"molecular_target": "Calpain1/2 (Homo sapiens) (UniProt P17655+P07384)", "sequence (P07384 whole entry, looked up)": "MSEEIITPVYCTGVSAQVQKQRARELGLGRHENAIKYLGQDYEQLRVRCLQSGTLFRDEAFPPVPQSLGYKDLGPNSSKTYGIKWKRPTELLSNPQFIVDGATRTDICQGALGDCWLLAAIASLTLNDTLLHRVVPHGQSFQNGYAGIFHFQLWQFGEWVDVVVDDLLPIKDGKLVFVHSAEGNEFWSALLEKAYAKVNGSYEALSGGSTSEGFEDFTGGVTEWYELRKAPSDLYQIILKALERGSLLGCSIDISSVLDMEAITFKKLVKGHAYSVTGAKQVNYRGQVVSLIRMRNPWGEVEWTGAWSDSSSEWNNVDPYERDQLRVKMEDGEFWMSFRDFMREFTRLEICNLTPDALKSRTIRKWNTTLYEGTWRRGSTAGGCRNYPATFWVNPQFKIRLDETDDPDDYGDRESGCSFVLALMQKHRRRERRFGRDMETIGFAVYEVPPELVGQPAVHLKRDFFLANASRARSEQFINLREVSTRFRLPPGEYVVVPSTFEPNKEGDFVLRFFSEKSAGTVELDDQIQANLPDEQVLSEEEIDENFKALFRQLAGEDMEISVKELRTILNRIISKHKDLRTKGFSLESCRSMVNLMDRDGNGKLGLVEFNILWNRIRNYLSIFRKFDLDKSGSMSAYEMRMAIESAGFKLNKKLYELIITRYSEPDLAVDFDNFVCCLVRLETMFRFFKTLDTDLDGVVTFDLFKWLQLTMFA", "sequence (P17655 whole entry, looked up)": "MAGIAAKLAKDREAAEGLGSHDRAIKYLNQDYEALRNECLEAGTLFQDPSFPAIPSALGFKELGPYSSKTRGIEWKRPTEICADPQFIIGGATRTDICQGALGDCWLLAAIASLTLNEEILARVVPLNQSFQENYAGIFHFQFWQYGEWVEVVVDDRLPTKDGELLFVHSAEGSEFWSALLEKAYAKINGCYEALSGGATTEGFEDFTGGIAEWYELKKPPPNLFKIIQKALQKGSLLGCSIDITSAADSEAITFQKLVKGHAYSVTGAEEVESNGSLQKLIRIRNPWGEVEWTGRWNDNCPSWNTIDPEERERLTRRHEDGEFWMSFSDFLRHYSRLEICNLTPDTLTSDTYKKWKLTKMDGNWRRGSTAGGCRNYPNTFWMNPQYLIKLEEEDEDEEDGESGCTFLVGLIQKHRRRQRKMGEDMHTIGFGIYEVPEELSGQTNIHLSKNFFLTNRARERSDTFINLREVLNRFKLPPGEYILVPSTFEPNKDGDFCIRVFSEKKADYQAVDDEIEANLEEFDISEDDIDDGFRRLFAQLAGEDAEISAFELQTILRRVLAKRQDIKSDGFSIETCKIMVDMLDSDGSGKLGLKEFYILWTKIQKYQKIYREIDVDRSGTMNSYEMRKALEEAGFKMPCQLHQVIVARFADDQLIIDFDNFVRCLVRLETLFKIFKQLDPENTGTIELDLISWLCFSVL", "settings": "10 to 20 uM", "description": "Inhibition of calpain in NHLF assessed as inhibition of TGFB1-induced FMT by measuring alpha-SMA expression at 10 to 20 uM incubated for 24 hrs by Western blot analysis"}}, "note": "The source made the active and inactive calls. No cut-off for these calls is given here. Where a SMILES comes first, the peptide text is derived from it. The star is where a group is joined. Cbz = O=C(OCc1ccccc1)*; CH2F = FC*", "data": [{"molecule": "C[C@H](NC(=O)[C@H](Cc1ccccc1)NC(=O)OCc1ccccc1)C(=O)CF", "values": [{"measurement": "IC50", "setting": "Calpain-9", "value": 100, "unit": "µM"}]}, {"molecule": "C=CC[C@@H]1/C=C(\\C)C[C@H](C)C[C@H](OC)[C@H]2O[C@@](O)(C(=O)C(=O)N3CCCC[C@H]3C(=O)O[C@H](/C(C)=C/[C@@H]3CC[C@@H](O)[C@H](OC)C3)[C@H](C)[C@@H](O)CC1=O)[C@H](C)C[C@@H]2OC", "values": [{"measurement": "inhibition", "setting": "Mus musculus [1]", "value": "Active"}]}, {"molecule": "COC(=O)C[C@H](NC(=O)[C@H](C)NC(=O)[C@@H](NC(=O)OCc1ccccc1)C(C)C)C(=O)CF", "note": "(Cbz-Val-Ala-Asp(OMe)-CH2F)", "values": [{"measurement": "IC50", "setting": "Calpain-9", "value": 100, "unit": "µM"}]}, {"molecule": "CCCC[C@@H](C=O)NC(=O)[C@H](CC(C)C)NC(=O)OCc1ccccc1", "values": [{"measurement": "inhibition", "setting": "Mus musculus [2]", "value": "Active"}, {"measurement": "inhibition", "setting": "Mus musculus [3]", "value": "Active"}, {"measurement": "inhibition", "setting": "[4]", "value": "inactive"}]}, {"molecule": "NC(=O)c1ccc(-c2nc(-c3ccccn3)c(-c3ccc4c(c3)OCO4)[nH]2)cc1", "values": [{"measurement": "inhibition", "setting": "Mus musculus [5]", "value": "Active"}, {"measurement": "inhibition", "setting": "Mus musculus [6]", "value": "Active"}, {"measurement": "inhibition", "setting": "Mus musculus [7]", "value": "Active"}]}, {"molecule": "c1ccc2c(c1)CCC[C@H]2Nc1nc2ccccc2[nH]1", "values": [{"measurement": "inhibition", "setting": "[8]", "value": "inactive"}, {"measurement": "inhibition", "setting": "[9]", "value": "Active"}, {"measurement": "inhibition", "setting": "[10]", "value": "Active"}, {"measurement": "inhibition", "setting": "[11]", "value": "Active"}]}, {"molecule": "CC(C)[C@H](NC(=O)OCc1ccccc1)C(=O)N[C@H](C=O)Cc1ccccc1", "note": "(Cbz-Val-Phe-aldehyde)", "values": [{"measurement": "inhibition", "setting": "Mus musculus [12]", "value": "Active"}, {"measurement": "inhibition", "setting": "[13]", "value": "inactive"}, {"measurement": "inhibition", "setting": "Mus musculus [14]", "value": "Active"}, {"measurement": "inhibition", "setting": "Mus musculus [15]", "value": "Active"}, {"measurement": "inhibition", "setting": "Mus musculus [16]", "value": "Active"}, {"measurement": "inhibition", "setting": "Mus musculus [17]", "value": "Active"}, {"measurement": "inhibition", "setting": "Mus musculus [18]", "value": "Active"}, {"measurement": "inhibition", "setting": "Mus musculus [19]", "value": "Active"}, {"measurement": "inhibition", "setting": "MDCK", "value": "Active"}, {"measurement": "inhibition", "setting": "Mus musculus [20]", "value": "Active"}, {"measurement": "inhibition", "setting": "Mus musculus [21]", "value": "Active"}, {"measurement": "inhibition", "setting": "Mus musculus [22]", "value": "Active"}, {"measurement": "inhibition", "setting": "[23]", "value": "Active"}]}, {"molecule": "NCCOB(c1ccccc1)c1ccccc1", "values": [{"measurement": "inhibition", "setting": "[4]", "value": "inactive"}, {"measurement": "inhibition", "setting": "[10]", "value": "Active"}, {"measurement": "inhibition", "setting": "[11]", "value": "Active"}]}]}
